Legend:
[1] = refractive index (Na D-line) (dimensionless); xn = mol fraction of the nth substance listed; conditions: 101 kPa, Liquid, Standard Abbe refractometry
[2] = xn = mol fraction of the nth substance listed; conditions: 101 kPa, Liquid; for viscosity: Capillary tube (Ostwald / Ubbelohde) method; for mass density: Vibrating tube method

CC1CCC(C)C(C)C1 (stereo not given) [1,2,4-trimethylcyclohexane] + C1C[C@@H]2[C@H]3CC[C@H](C3)[C@@H]2C1
Conditions | mass density, [2] [kg/m3] | refractive index, [1] | viscosity, [2] [mPa·s]
293.15 K, x2 = 0 | 790.8 | 1.4331 | 0.886
293.15 K, x2 = 0.1 | 804.62 | 1.4381 | 0.986
293.15 K, x2 = 0.1996 | 818.49 | 1.4436 | 1.101
293.15 K, x2 = 0.3002 | 832.73 | 1.449 | 1.23
293.15 K, x2 = 0.4009 | 847.13 | 1.4545 | 1.381
293.15 K, x2 = 0.5001 | 861.44 | 1.4597 | 1.562
293.15 K, x2 = 0.5992 | 875.89 | 1.4651 | 1.759
293.15 K, x2 = 0.6998 | 890.7 | 1.4709 | 2.008
293.15 K, x2 = 0.7997 | 905.51 | 1.476 | 2.277
293.15 K, x2 = 0.9001 | 920.61 | 1.4818 | 2.609
298.15 K, x2 = 0 | 786.92 | – | 0.827
298.15 K, x2 = 0.1 | 800.71 | – | 0.917
298.15 K, x2 = 0.1996 | 814.61 | – | 1.021
298.15 K, x2 = 0.3002 | 828.84 | – | 1.137
298.15 K, x2 = 0.4009 | 843.21 | – | 1.273
298.15 K, x2 = 0.5001 | 857.51 | – | 1.436
298.15 K, x2 = 0.5992 | 871.98 | – | 1.613
298.15 K, x2 = 0.6998 | 886.77 | – | 1.837
298.15 K, x2 = 0.7997 | 901.61 | – | 2.076
298.15 K, x2 = 0.9001 | 916.71 | – | 2.371
303.15 K, x2 = 0 | 783.03 | 1.4285 | 0.774
303.15 K, x2 = 0.1 | 796.8 | 1.4339 | 0.856
303.15 K, x2 = 0.1996 | 810.7 | 1.4392 | 0.95
303.15 K, x2 = 0.3002 | 824.93 | 1.4442 | 1.056
303.15 K, x2 = 0.4009 | 839.3 | 1.4499 | 1.179
303.15 K, x2 = 0.5001 | 853.59 | 1.4554 | 1.326
303.15 K, x2 = 0.5992 | 868.06 | 1.4608 | 1.486
303.15 K, x2 = 0.6998 | 882.85 | 1.4661 | 1.687
303.15 K, x2 = 0.7997 | 897.7 | 1.4718 | 1.901
303.15 K, x2 = 0.9001 | 912.81 | 1.4775 | 2.165
308.15 K, x2 = 0 | 779.13 | – | 0.727
308.15 K, x2 = 0.1 | 792.9 | – | 0.802
308.15 K, x2 = 0.1996 | 806.79 | – | 0.888
308.15 K, x2 = 0.3002 | 821.01 | – | 0.984
308.15 K, x2 = 0.4009 | 835.38 | – | 1.096
308.15 K, x2 = 0.5001 | 849.67 | – | 1.23
308.15 K, x2 = 0.5992 | 864.13 | – | 1.374
308.15 K, x2 = 0.6998 | 878.93 | – | 1.556
308.15 K, x2 = 0.7997 | 893.78 | – | 1.749
308.15 K, x2 = 0.9001 | 908.89 | – | 1.985
313.15 K, x2 = 0 | 775.23 | 1.424 | 0.686
313.15 K, x2 = 0.1 | 788.98 | 1.429 | 0.753
313.15 K, x2 = 0.1996 | 802.87 | 1.4346 | 0.832
313.15 K, x2 = 0.3002 | 817.09 | 1.44 | 0.92
313.15 K, x2 = 0.4009 | 831.45 | 1.4452 | 1.022
313.15 K, x2 = 0.5001 | 845.74 | 1.4508 | 1.144
313.15 K, x2 = 0.5992 | 860.2 | 1.4561 | 1.275
313.15 K, x2 = 0.6998 | 875.01 | 1.4618 | 1.44
313.15 K, x2 = 0.7997 | 889.85 | 1.4676 | 1.615
313.15 K, x2 = 0.9001 | 904.97 | 1.4731 | 1.828
318.15 K, x2 = 0 | 771.32 | – | 0.648
318.15 K, x2 = 0.1 | 785.06 | – | 0.71
318.15 K, x2 = 0.1996 | 798.94 | – | 0.782
318.15 K, x2 = 0.3002 | 813.16 | – | 0.862
318.15 K, x2 = 0.4009 | 827.52 | – | 0.956
318.15 K, x2 = 0.5001 | 841.8 | – | 1.068
318.15 K, x2 = 0.5992 | 856.27 | – | 1.187
318.15 K, x2 = 0.6998 | 871.07 | – | 1.337
318.15 K, x2 = 0.7997 | 885.92 | – | 1.496
318.15 K, x2 = 0.9001 | 901.04 | – | 1.688

C1C[C@@H]2[C@H]3CC[C@H](C3)[C@@H]2C1 [exo-tetrahydrodicyclopentadiene] + CC1CCCCC1
Conditions | mass density, [2] [kg/m3] | refractive index, [1] | viscosity, [2] [mPa·s]
293.15 K, x1 = 0.1 | 788.79 | 1.4298 | 0.842
293.15 K, x1 = 0.2009 | 807.71 | 1.4376 | 0.959
293.15 K, x1 = 0.301 | 825.81 | 1.4447 | 1.102
293.15 K, x1 = 0.3999 | 843.02 | 1.4515 | 1.267
293.15 K, x1 = 0.4999 | 859.94 | 1.4586 | 1.454
293.15 K, x1 = 0.5992 | 876.09 | 1.4646 | 1.67
293.15 K, x1 = 0.7004 | 891.98 | 1.4709 | 1.925
293.15 K, x1 = 0.7995 | 906.95 | 1.4768 | 2.22
293.15 K, x1 = 0.9011 | 921.82 | 1.482 | 2.582
293.15 K, x1 = 1 | 935.72 | 1.4874 | 2.992
298.15 K, x1 = 0.1 | 784.53 | – | 0.785
298.15 K, x1 = 0.2009 | 803.5 | – | 0.892
298.15 K, x1 = 0.301 | 821.64 | – | 1.023
298.15 K, x1 = 0.3999 | 838.89 | – | 1.171
298.15 K, x1 = 0.4999 | 855.86 | – | 1.34
298.15 K, x1 = 0.5992 | 872.05 | – | 1.534
298.15 K, x1 = 0.7004 | 887.96 | – | 1.762
298.15 K, x1 = 0.7995 | 902.99 | – | 2.026
298.15 K, x1 = 0.9011 | 917.88 | – | 2.347
298.15 K, x1 = 1 | 931.84 | – | 2.71
303.15 K, x1 = 0.1 | 780.25 | 1.4253 | 0.735
303.15 K, x1 = 0.2009 | 799.26 | 1.4324 | 0.833
303.15 K, x1 = 0.301 | 817.46 | 1.4402 | 0.952
303.15 K, x1 = 0.3999 | 834.75 | 1.4472 | 1.087
303.15 K, x1 = 0.4999 | 851.75 | 1.4539 | 1.239
303.15 K, x1 = 0.5992 | 867.99 | 1.4599 | 1.416
303.15 K, x1 = 0.7004 | 883.94 | 1.4662 | 1.621
303.15 K, x1 = 0.7995 | 899.01 | 1.4722 | 1.857
303.15 K, x1 = 0.9011 | 913.94 | 1.478 | 2.146
303.15 K, x1 = 1 | 927.94 | 1.4831 | 2.467
308.15 K, x1 = 0.1 | 775.95 | – | 0.692
308.15 K, x1 = 0.2009 | 795.01 | – | 0.781
308.15 K, x1 = 0.301 | 813.26 | – | 0.89
308.15 K, x1 = 0.3999 | 830.6 | – | 1.013
308.15 K, x1 = 0.4999 | 847.64 | – | 1.151
308.15 K, x1 = 0.5992 | 863.93 | – | 1.312
308.15 K, x1 = 0.7004 | 879.91 | – | 1.497
308.15 K, x1 = 0.7995 | 895.01 | – | 1.709
308.15 K, x1 = 0.9011 | 910 | – | 1.967
308.15 K, x1 = 1 | 924.02 | – | 2.255
313.15 K, x1 = 0.1 | 771.64 | 1.4198 | 0.652
313.15 K, x1 = 0.2009 | 790.75 | 1.4276 | 0.733
313.15 K, x1 = 0.301 | 809.05 | 1.4351 | 0.834
313.15 K, x1 = 0.3999 | 826.43 | 1.4421 | 0.947
313.15 K, x1 = 0.4999 | 843.53 | 1.449 | 1.074
313.15 K, x1 = 0.5992 | 859.84 | 1.4549 | 1.218
313.15 K, x1 = 0.7004 | 875.88 | 1.4617 | 1.388
313.15 K, x1 = 0.7995 | 891.03 | 1.4672 | 1.579
313.15 K, x1 = 0.9011 | 906.04 | 1.4732 | 1.81
313.15 K, x1 = 1 | 920.11 | 1.4786 | 2.069
318.15 K, x1 = 0.1 | 767.31 | – | 0.616
318.15 K, x1 = 0.2009 | 786.48 | – | 0.691
318.15 K, x1 = 0.301 | 804.83 | – | 0.783
318.15 K, x1 = 0.3999 | 822.26 | – | 0.887
318.15 K, x1 = 0.4999 | 839.4 | – | 1.003
318.15 K, x1 = 0.5992 | 855.75 | – | 1.135
318.15 K, x1 = 0.7004 | 871.84 | – | 1.29
318.15 K, x1 = 0.7995 | 887.03 | – | 1.463
318.15 K, x1 = 0.9011 | 902.08 | – | 1.672
318.15 K, x1 = 1 | 916.18 | – | 1.907

From the NIST ThermoML archive (doi:10.1021/je400529k)
